# Source: a melting point compilation (Tetko et al.; mined from patent text by program, amines drawn as free bases though some values may be those of a salt)
row,melting point [°C],Structure (SMILES)
1,117 to 119,C[C@H](C(=O)N[C@@H](COC(=O)C(C)(C)C)Cc1ccccc1)c1ccc(NS(C)(=O)=O)c(F)c1
2,185 to 187,CN(C)C(=O)Cc1nc(-c2ccccc2)nc2c1c1ccc(Cl)cc1n2C
3,151 to 152,OCc1cn(-c2ccc(F)c(Br)c2)cn1
4,172 to 178,Clc1cccc2c1C1(CO1)c1cccc(Cl)c1C21CO1 (stereo unspecified)
5,199 to 202,O=c1cc(C(F)(F)F)[nH]c(=O)n1Cc1cc(Cl)cc(Cl)c1Cl
6,141,O=C1Nc2ccccc2C(c2ccccc2)N1CCO (stereo unspecified)
7,137,CCCCCCCCCCCCCCCCCCOc1ccc(C=Cc2ccc(S(=O)(=O)CCCO)cc2)cc1
8,131 to 133,O=Cc1cncn1-c1ccc(F)cc1
9,100 to 107,O=[N+]([O-])c1cc(C(F)(F)F)cc2c(Cl)ccnc12
10,220 to 222,COc1ccc2cc(C(=O)O)ccc2n1
11,79 to 83,O=C1C(Br)CCN1c1cccc(C(F)(F)F)c1 (stereo unspecified)
12,108 to 109,COc1ccc2c(c1Br)CCC=C2C#N
13,192 to 194,CCCN1CCCN(c2ccccc2)c2cc(Cl)ccc21
14,141 to 143,CCc1c(-c2ccc(O)cc2)c2cc(COCCN(C)C)c3cccc1n32
15,95 to 96,Cc1cc(Cl)ccc1NC(=O)n1nc(Oc2cccc(C(F)(F)F)c2)cc1C
16,310 to 312,Cc1nc2cc(C)c(C)cc2c(=O)[nH]1
17,81 to 84,CCOC(=O)C(CC(=O)c1ccc(OC)cc1)C(=O)OCC
18,181,CCOC(=O)C(=O)Nc1c([N+](=O)[O-])ccc2ncccc12
19,76,COc1cc(C(=O)c2cccnc2)ccc1OCc1ccccc1
20,297 to 299,O=C1CC(NC(=O)c2ccc3nc[nH]c3c2)CCCN1 (stereo unspecified)
21,75 to 77,C=CCO/N=C(/C(=O)OCC)c1ccc(OCCOc2ccc3ccccc3c2)s1
22,197 to 199,COc1cccc(-c2nc(C(=O)OC(C)(C)C)c(-c3ccncc3)[nH]2)c1
23,183,O=C(O)c1cccc(Oc2ccnc(Cl)c2)n1
24,83 to 84,COC(=O)C1=C(S(N)(=O)=O)CCC1
25,236 to 238,CCOC(=O)N1CCc2[nH]cc3c(=O)n(-c4ccccc4)nc-3c2C1

row,melting point [°C],Structure (SMILES)
1,188 to 192,O=C(O)C1=Cc2cc(I)ccc2NC1C(F)(F)F (stereo unspecified)
2,120 to 121,CN(Cc1ccccc1)C(=O)c1cnc2c([N+](=O)[O-])cccc2c1Cl
3,219 to 220,Cc1nc(Sc2cc(C(=O)O)nc3ccccc23)sc1CC(=O)O
4,188 to 190,O=C1CCc2ccc3ncoc3c21
5,192 to 194,CCNC(=O)c1cccc2[nH]n(C)c(=O)c12
6,205 to 207,O=C(c1ccccc1)C1CCCc2cccnc21 (stereo unspecified)
7,130 to 140,COCCOc1cc(C)nc(NC(=O)NS(=O)(=O)c2ccccc2Cl)n1
8,136 to 140,Cc1cccc(NC(=O)NC2CN(C(=O)C(C)(C)C)c3ccccc3N(CC(=O)OCc3ccccc3)C2=O)c1 (stereo unspecified)
9,> 300,Cn1c2cc(Cl)ccc2c2c(=O)[nH]c(-c3ccccc3)nc21
10,106 to 117,Cc1ccc(C)c(S(=O)(=O)n2c(CCCC(=O)O)cc3nc(Cl)ccc32)c1
11,61 to 63,COC(=S)CCc1cc(Oc2ccc(C(F)(F)F)cc2Cl)ccc1[N+](=O)[O-]
12,> 250,CC(=O)NNc1ccnc2c(NC(=O)c3c(Cl)cccc3Cl)c(C)ccc12
13,156 to 157,O=[N+]([O-])c1cnn2c1-c1ccccc1NC2
14,215 to 218,C[C@H]1[C@H](O)CN1c1c(F)cc2c(=O)c(C(=O)O)cn(C3CC3)c2c1F (relative stereo)
15,118,O=c1oc(-c2ccc(OCCCC(F)(F)F)cc2)nn1CCO
16,191 to 192,O=c1c2ccccc2oc2c(CBr)cccc12
17,141 to 142,O=S(=O)(c1ccc(Cl)cc1)C(c1cc(F)ccc1F)c1cc(NCc2ccncc2)ncc1Cl (stereo unspecified)
18,94 to 95,CC(C)(C)OC(=O)N1CCC(S(C)(=O)=O)CC1
19,246 to 247,CCCC(=O)Nc1ccc2nc(S(N)(=O)=O)sc2c1
20,132 to 134,Clc1ccc(COc2ccc(Cl)cc2C(c2ccccc2)n2ccnc2)c(Cl)c1 (stereo unspecified)
21,71 to 73,CC(C)Cc1nc[nH]n1
22,170 to 175,O=C1NCC=Cc2c1[nH]c(Br)c2Br
23,178 to 180,Cc1cc(CC(=O)OC(C)(C)C)ccc1NC(=O)Nc1ccccc1C(F)(F)F
24,199 to 201,CCCCSCC(=O)c1cc2[nH]c(=O)[nH]c2cc1Cl
25,208,O=C1c2cccc(NC(=S)Nc3cc[nH]n3)c2C2CCCCN12 (stereo unspecified)

row,melting point [°C],Structure (SMILES)
1,108 to 116,CC(CCc1ccccc1)NCC(O)c1ccc(C(N)=O)s1 (stereo unspecified)
2,174 to 175,COc1ccc(S(=O)(=O)Nc2ccccc2NC(=O)c2ccccn2)cc1
3,135,Cc1ccc(CCN2CCN(c3noc4ccccc34)CC2)c2c1C(C)(C)CCN2
4,157 to 159,N#CCOc1ccc(-c2cc(O)c(SCCc3ccccc3)c(=O)o2)cc1
5,181 to 183,CCOC(=O)COc1ccc(C2=NNC(=O)NC2)cc1
6,115 to 117,CN1CCN(c2cccc3ccc(NCc4ccccc4)cc23)CC1
7,53 to 54,CCCCCCCCCCCC(=O)O[C@H](CCCCCCCCCCC)CC(=O)N[C@@H](CO)C(=O)OCc1ccccc1
8,53 to 55,O=C1c2ccccc2C(=O)N1CCSCCc1ccco1
9,64 to 65,CCCCC=C1SC(=O)N(CCCCOc2cccn3ccnc23)C1=O
10,146 to 148,Cc1cccc(-n2nc3c(c2-c2cc4cnccc4s2)CCC3)n1
11,187 to 189,O=S1(=O)NCN(C2CC2)c2ccc(O)cc21
12,193 to 194,O=C(O)Cc1c(-c2ccccc2)nn(-c2ccc(Cl)cc2)c1-c1ccccc1
13,159 to 161,O=[N+]([O-])c1cnc(Nc2ccccc2F)c([N+](=O)[O-])c1
14,145 to 149,CCc1ccc(-c2ccc(I)cc2)cc1
15,375,O=C(O)c1ccc2c(c1)C=Cc1ccc(C(=O)O)cc1S2(=O)=O
16,147 to 149,Cc1cc2oc(=O)c3c(c2cc1Cl)CC(N1CC2CCCC(C2)C1)NC3 (stereo unspecified)
17,89 to 90,COc1ccc([N+](=O)[O-])c(C=O)c1
18,227 to 229,C=C1c2cc(C(=O)O)ccc2CCC1n1ccnc1 (stereo unspecified)
19,137 to 138,O=c1nc(N(Cc2ccccc2)c2ccccc2)sc2ncccc12
20,134,COC1(c2cc(F)cc(Sc3ccc4c(c3)CCC(=S)N4C)c2)CCOCC1
21,178 to 180,NC(=O)/C=C1\CCc2c(F)cc(F)cc21
22,29.5 to 31.5,COc1cccc(C=O)c1OS(=O)(=O)C(F)(F)F
23,194,CNC(=O)C(NC(=O)c1cn(C)nc1C(F)(F)F)C(CO)c1ccccc1 (stereo unspecified)
24,164 to 165,CCOC(=O)c1cnc2cn[nH]c2c1Nc1ccccc1

row,Structure (SMILES),melting point [°C]
1,N#Cc1ccc(N2CCC(F)(F)C2)c2ccsc12,169 to 170
2,CC1(C)CC(=O)NC2CCCCC2N1CCO (stereo unspecified),154 to 156
